Holding throughout (type): functional, cell-based
Test [1] deals with Protein smoothened (Mus musculus) (UniProt P56726). Kind of test: Agonist activity at SMO in mouse NIH3T3 cells assessed as induction of SMO accumulation in primary cilia incubated for 12 hrs by AlexaFluor 488/ DAPI staining based immunofluorescence method.
The target in test [2] is T1, Protein smoothened (Mus musculus, UniProt P56726). Kind of test: (§1) Agonist activity at SMO in mouse NIH3T3 cells incubated for 2 hrs by Bright-Glo luciferase assay.
T1 sequence (P56726 whole entry): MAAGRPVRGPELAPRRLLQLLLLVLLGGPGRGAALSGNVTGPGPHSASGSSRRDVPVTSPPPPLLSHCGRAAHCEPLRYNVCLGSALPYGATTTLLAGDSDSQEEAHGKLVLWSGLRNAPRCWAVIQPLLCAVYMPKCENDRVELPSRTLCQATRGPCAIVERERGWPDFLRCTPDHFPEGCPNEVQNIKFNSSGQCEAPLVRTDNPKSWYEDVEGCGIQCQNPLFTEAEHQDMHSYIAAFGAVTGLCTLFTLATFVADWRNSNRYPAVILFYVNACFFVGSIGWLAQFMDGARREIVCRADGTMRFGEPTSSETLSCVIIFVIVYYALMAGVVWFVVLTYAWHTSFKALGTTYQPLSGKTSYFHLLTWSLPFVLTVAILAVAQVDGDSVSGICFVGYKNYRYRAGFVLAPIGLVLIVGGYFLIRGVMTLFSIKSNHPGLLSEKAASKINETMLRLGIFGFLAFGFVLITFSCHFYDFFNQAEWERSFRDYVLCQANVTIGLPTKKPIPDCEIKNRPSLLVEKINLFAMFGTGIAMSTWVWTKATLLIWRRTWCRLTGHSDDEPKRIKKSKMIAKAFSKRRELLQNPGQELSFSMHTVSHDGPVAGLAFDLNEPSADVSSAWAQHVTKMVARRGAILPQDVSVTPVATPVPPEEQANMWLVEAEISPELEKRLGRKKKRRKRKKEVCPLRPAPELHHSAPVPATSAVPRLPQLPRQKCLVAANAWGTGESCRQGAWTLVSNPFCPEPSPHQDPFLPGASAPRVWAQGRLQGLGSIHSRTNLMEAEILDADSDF
Test [3] addresses Protein smoothened (Mus musculus) (UniProt P56726). Described as §1.
For test [4] the target is unchanged. The test can be described thus: Agonist activity at SMO in mouse NIH3T3 cells assessed as induction of SMO accumulation in primary cilia incubated for 12 hrs by fluorescence method. Particulars: filed as agonist.
Test [5] has the same target. Kind of test: Agonist activity at SMO in mouse NIH3T3 cells assessed as fluorescent intensity of ciliary SMO incubated for 12 hrs by fluorescence method. Conditions: filed as agonist.
The target in test [6] is T1, Protein smoothened. The test can be described thus: Antagonist activity at SMO in mouse NIH3T3 cells preincubated for 2 hrs followed by SAG stimulation and measured after 24 hrs by Bright-Glo luciferase assay.

The record followed here is ChEMBL document CHEMBL4828758, “Elucidation of Distinct Modular Assemblies of Smoothened Receptor by Bitopic Ligand Measurement” (J Med Chem, 2021).

For orientation: EC50 means the midpoint of the concentration-response curve. A lower EC50 goes with a more potent agent. By IC50 is commonly meant the concentration that gives 50% inhibition. The low end stands for greater potency in that assay, the high end for weaker potency in that assay.

SMILES strings stand for the structures. Active and inactive are the calls of the source. The calls are words filed in the database; no cut-off is given here.

Sequence of Protein smoothened (Mus musculus) (P56726 whole entry): as above

On to `C[C@H](CCCCCCOCCOCc1cn(CCOCCOCCOCCOCCOCCS(=O)(=O)c2ccc(C(=O)Nc3ccc(Cl)c(-c4ccccn4)c3)c(Cl)c2)nn1)C1CC[C@H]2[C@@H]3CC=C4C[C@@H](O)CC[C@]4(C)[C@H]3CC[C@]12C` (stereo partly drawn), for which the result in test [1] was inactive.

`CN[C@H]1CC[C@H](N(Cc2cccc(-c3ccnc(OCCOCCOCCOCCn4cc(COCCO)nn4)c3)c2)C(=O)c2sc3ccccc3c2Cl)CC1` had an EC50 in test [2] of 966 nM.

`CN[C@H]1CC[C@H](N(Cc2cccc(-c3ccnc(OCCOCCOCCOCCOCCOCCn4cc(COCCOCCOCCOCCOCCOCCOCCCCCCC(C)(O)C5CC[C@H]6[C@@H]7CC=C8C[C@@H](O)CC[C@]8(C)[C@H]7CC[C@]56C)nn4)c3)c2)C(=O)c2sc3ccccc3c2Cl)CC1` (stereo partly drawn): the outcome in test [3] was inactive.

Turning to `CN[C@H]1CC[C@H](N(Cc2cccc(-c3ccnc(OCCOCCOCCOCCn4cc(COCCOCCC#CCCC(C)(O)C5CC[C@H]6[C@@H]7CC=C8C[C@@H](O)CC[C@]8(C)[C@H]7CC[C@]56C)nn4)c3)c2)C(=O)c2sc3ccccc3c2Cl)CC1` (stereo partly drawn), the result in test [1] (filed as agonist), in test [4] and in test [5] was Active.

Consider `CC(O)(CCCCCCOCCOCCOCc1cn(CCOCCOCCOCCOCCOCCS(=O)(=O)c2ccc(C(=O)Nc3ccc(Cl)c(-c4ccccn4)c3)c(Cl)c2)nn1)C1CC[C@H]2[C@@H]3CC=C4C[C@@H](O)CC[C@]4(C)[C@H]3CC[C@]12C` (stereo partly drawn), for which the IC50 in test [6] was 20 nM.

Consider `CN[C@H]1CC[C@H](N(Cc2cccc(-c3ccnc(OCCOCCOCCOCCn4cc(COCCOCCOCCOCCOCCCCCC[C@](C)(O)C5CC[C@H]6[C@@H]7CC=C8C[C@@H](O)CC[C@]8(C)[C@H]7CC[C@]56C)nn4)c3)c2)C(=O)c2sc3ccccc3c2Cl)CC1` (stereo partly drawn), for which the result in test [3] was inactive.

`CN[C@H]1CC[C@H](N(Cc2cccc(-c3ccnc(OCCOCCOCCOCCn4cc(COCCOCCOCCOCCCCCC[C@](C)(O)C5CC[C@H]6[C@@H]7CC=C8C[C@@H](O)CC[C@]8(C)[C@H]7CC[C@]56C)nn4)c3)c2)C(=O)c2sc3ccccc3c2Cl)CC1` (stereo partly drawn): the result in test [3] was inactive.

As for `CN[C@H]1CC[C@H](N(Cc2cccc(-c3ccnc(OCCn4cc(COCCCCCCC[C@](C)(O)[C@H]5CC[C@H]6[C@@H]7CC=C8C[C@@H](O)CC[C@]8(C)[C@H]7CC[C@@]65C)nn4)c3)c2)C(=O)c2sc3ccccc3c2Cl)CC1`, in test [3], the outcome was inactive.

Consider `CC(O)(CCCCCCO)C1CC[C@H]2[C@@H]3CC=C4C[C@@H](O)CC[C@]4(C)[C@H]3CC[C@]12C` (stereo partly drawn), for which the EC50 in test [2] is greater than 100000 nM.

`CC(O)(CCCCCCOCCOCc1cn(CCOCCOCCOCCOCCOCCS(=O)(=O)c2ccc(C(=O)Nc3ccc(Cl)c(-c4ccccn4)c3)c(Cl)c2)nn1)C1CC[C@H]2[C@@H]3CC=C4C[C@@H](O)CC[C@]4(C)[C@H]3CC[C@]12C` (stereo partly drawn): the outcome in test [1] and in test [3] was inactive. In addition, in test [6], it took 20 nM to reach half-maximal inhibition (IC50).

Take `CN[C@H]1CC[C@H](N(Cc2cccc(-c3ccnc(OCCOCCOCCn4cc(COCCCCCCC(C)(O)C5CC[C@H]6[C@@H]7CC=C8C[C@@H](O)CC[C@]8(C)[C@H]7CC[C@]56C)nn4)c3)c2)C(=O)c2sc3ccccc3c2Cl)CC1` (stereo partly drawn): the response in test [2] was half-maximal at 8 nM (EC50).

In test [6], `CC(O)(CCCCCCOCCOCCOCCOCCOCCOCCOCCOCCOCc1cn(CCOCCOCCOCCOCCOCCS(=O)(=O)c2ccc(C(=O)Nc3ccc(Cl)c(-c4ccccn4)c3)c(Cl)c2)nn1)C1CC[C@H]2[C@@H]3CC=C4C[C@@H](O)CC[C@]4(C)[C@H]3CC[C@]12C` (stereo partly drawn) showed an IC50 of 20 nM.

With `CN[C@H]1CC[C@H](N(Cc2cccc(-c3ccnc(OCCOCCOCCOCCOCCOCCn4cc(COCCOCCOCCOCCOCCOCCOCCOCCCCCC[C@@H](C)C5CC[C@H]6[C@@H]7CC=C8C[C@@H](O)CC[C@]8(C)[C@H]7CC[C@]56C)nn4)c3)c2)C(=O)c2sc3ccccc3c2Cl)CC1` (stereo partly drawn), in test [2], it took 200 nM to reach a half-maximal effect (EC50).

As for `CC(O)(CCCCCCOCCOCc1cn(CCOCCOCCOCCO)nn1)C1CC[C@H]2[C@@H]3CC=C4C[C@@H](O)CC[C@]4(C)[C@H]3CC[C@]12C` (stereo partly drawn), the EC50 in test [2] is greater than 100000 nM.

Regarding `CN[C@H]1CC[C@H](N(Cc2cccc(-c3ccnc(OCCOCCOCCOCCn4cc(COCCOCCOCCOCCOCCOCCOCCCCCC[C@@H](C)C5CC[C@H]6[C@@H]7CC=C8C[C@@H](O)CC[C@]8(C)[C@H]7CC[C@]56C)nn4)c3)c2)C(=O)c2sc3ccccc3c2Cl)CC1` (stereo partly drawn), in test [2], it took 200 nM to reach a half-maximal effect (EC50).

Consider `CC1=C2C[C@H]3[C@@H](CC=C4C[C@@H](O)CC[C@@]43C)[C@@H]2CC[C@]12O[C@@H]1C[C@H](C)CN[C@H]1[C@H]2C`, for which the result in test [4] and in test [5] was Active.

In the case of `CN[C@H]1CC[C@H](N(Cc2cccc(-c3ccnc(OCCOCCOCCOCCn4cc(COCCOCCOCCOCCOCCOCCCCCC[C@](C)(O)C5CC[C@H]6[C@@H]7CC=C8C[C@@H](O)CC[C@]8(C)[C@H]7CC[C@]56C)nn4)c3)c2)C(=O)c2sc3ccccc3c2Cl)CC1` (stereo partly drawn), the outcome in test [3] was inactive.

On to `CC(O)(CCCCCCOCCOCCOCCOCCOCc1cn(CCOCCOCCOCCOCCOCCS(=O)(=O)c2ccc(C(=O)Nc3ccc(Cl)c(-c4ccccn4)c3)c(Cl)c2)nn1)C1CC[C@H]2[C@@H]3CC=C4C[C@@H](O)CC[C@]4(C)[C@H]3CC[C@]12C` (stereo partly drawn), for which, in test [6], it took 20 nM to reach half-maximal inhibition (IC50).

In the case of `CN[C@H]1CC[C@H](N(Cc2cccc(-c3ccnc(OCCOCCOCCOCCn4cc(COCCOCCOCCOCCCCCC[C@@H](C)C5CC[C@H]6[C@@H]7CC=C8C[C@@H](O)CC[C@]8(C)[C@H]7CC[C@]56C)nn4)c3)c2)C(=O)c2sc3ccccc3c2Cl)CC1` (stereo partly drawn), in test [2], the EC50 was found to be 200 nM.

`CN[C@H]1CC[C@H](N(Cc2cccc(-c3ccnc(OCCOCCOCCOCCn4cc(COCCOCCOCC(=O)N5C[C@@H](C)C[C@H]6O[C@]7(CC[C@@H]8C(=C7C)C[C@H]7[C@H]8CC=C8C[C@@H](O)CC[C@@]87C)[C@H](C)[C@@H]65)nn4)c3)c2)C(=O)c2sc3ccccc3c2Cl)CC1`: the outcome in test [1] (filed as agonist), in test [4] and in test [5] was Active.

In test [6], `CC(O)(CCCCCCOCCOCc1cn(CCOCCOCCOCCS(=O)(=O)c2ccc(C(=O)Nc3ccc(Cl)c(-c4ccccn4)c3)c(Cl)c2)nn1)C1CC[C@H]2[C@@H]3CC=C4C[C@@H](O)CC[C@]4(C)[C@H]3CC[C@]12C` (stereo partly drawn) returned an IC50 of 20 nM.

For the molecule `CN[C@H]1CC[C@H](N(Cc2cccc(-c3ccnc(OCCOCCOCCOCCn4cc(COCCCCCC[C@](C)(O)C5CC[C@H]6[C@@H]7CC=C8C[C@@H](O)CC[C@]8(C)[C@H]7CC[C@]56C)nn4)c3)c2)C(=O)c2sc3ccccc3c2Cl)CC1` (stereo partly drawn), the midpoint of the response in test [2], the EC50, lay at 8 nM.

In turn, `CN[C@H]1CC[C@H](N(Cc2cccc(-c3ccnc(OC)c3)c2)C(=O)c2sc3ccccc3c2Cl)CC1` yielded an EC50 in test [2] of 819 nM.

`CN[C@H]1CC[C@H](N(Cc2cccc(-c3ccnc(OCCOCCOCCOCCOCCOCCn4cc(COCCOCCOCCOCCOCCOCCOCCCCCC[C@@H](C)C5CC[C@H]6[C@@H]7CC=C8C[C@@H](O)CC[C@]8(C)[C@H]7CC[C@]56C)nn4)c3)c2)C(=O)c2sc3ccccc3c2Cl)CC1` (stereo partly drawn): the EC50 in test [2] was determined as 200 nM.

As for `CN[C@H]1CC[C@H](N(Cc2cccc(-c3ccnc(OCCOCCOCCOCCOCCn4cc(COCCOCCOCCOCCOCCOCCOCCCCCCC(C)(O)C5CC[C@H]6[C@@H]7CC=C8C[C@@H](O)CC[C@]8(C)[C@H]7CC[C@]56C)nn4)c3)c2)C(=O)c2sc3ccccc3c2Cl)CC1` (stereo partly drawn), in test [3], the outcome was inactive.

`CN[C@H]1CC[C@H](N(Cc2cccc(-c3ccnc(OCCOCCn4cc(COCCCCCC[C@](C)(O)[C@H]5CC[C@H]6[C@@H]7CC=C8C[C@@H](O)CC[C@]8(C)[C@H]7CC[C@@]65C)nn4)c3)c2)C(=O)c2sc3ccccc3c2Cl)CC1`: in test [3], the outcome was inactive.

The molecule `CC(O)(CCCCCCOCCOCc1cn(CCOCCOCCOCCOCCS(=O)(=O)c2ccc(C(=O)Nc3ccc(Cl)c(-c4ccccn4)c3)c(Cl)c2)nn1)C1CC[C@H]2[C@@H]3CC=C4C[C@@H](O)CC[C@]4(C)[C@H]3CC[C@]12C` (stereo partly drawn) registered an IC50 in test [6] of 20 nM.

The molecule `CC(O)(CCCCCCOCCOCc1cn(CCOCCOCCS(=O)(=O)c2ccc(C(=O)Nc3ccc(Cl)c(-c4ccccn4)c3)c(Cl)c2)nn1)C1CC[C@H]2[C@@H]3CC=C4C[C@@H](O)CC[C@]4(C)[C@H]3CC[C@]12C` (stereo partly drawn) had an IC50 in test [6] of 20 nM.

`CN[C@H]1CC[C@H](N(Cc2cccc(-c3ccncc3)c2)C(=O)c2sc3ccccc3c2Cl)CC1`: the outcome in test [4] and in test [5] was Active. The molecule also returned an EC50 in test [2] of 16.9 nM.

Molecule `CC(O)(CCCCCCOCCOCCOCCOCCOCCOCCOCc1cn(CCOCCOCCOCCOCCOCCS(=O)(=O)c2ccc(C(=O)Nc3ccc(Cl)c(-c4ccccn4)c3)c(Cl)c2)nn1)C1CC[C@H]2[C@@H]3CC=C4C[C@@H](O)CC[C@]4(C)[C@H]3CC[C@]12C` (stereo partly drawn) registered an IC50 in test [6] of 20 nM.

As for `CN[C@H]1CC[C@H](N(Cc2cccc(-c3ccnc(OCCOCCOCCOCCn4cc(COCCOCCOCCOCCOCCOCCOCCCCCC[C@](C)(O)C5CC[C@H]6[C@@H]7CC=C8C[C@@H](O)CC[C@]8(C)[C@H]7CC[C@]56C)nn4)c3)c2)C(=O)c2sc3ccccc3c2Cl)CC1` (stereo partly drawn), in test [3], the result was inactive.

Regarding `CN[C@H]1CC[C@H](N(Cc2cccc(-c3ccnc(OCCOCCOCCOCCOCCOCCn4cc(COCCOCCOCCOCCOCCOCCOCCOCCOCCCCCC[C@@H](C)C5CC[C@H]6[C@@H]7CC=C8C[C@@H](O)CC[C@]8(C)[C@H]7CC[C@]56C)nn4)c3)c2)C(=O)c2sc3ccccc3c2Cl)CC1` (stereo partly drawn), the EC50 in test [2] is 200 nM.

Molecule `[N-]=[N+]=NCCOCCOCCOCCOCCOCCS(=O)(=O)c1ccc(C(=O)Nc2ccc(Cl)c(-c3ccccn3)c2)c(Cl)c1` gave an IC50 in test [6] of 3000 nM.

For the molecule `CN[C@H]1CC[C@H](N(Cc2cccc(-c3ccnc(OCCOCCOCCOCCn4cc(COCCOCCOCCCCCC[C@](C)(O)C5CC[C@H]6[C@@H]7CC=C8C[C@@H](O)CC[C@]8(C)[C@H]7CC[C@]56C)nn4)c3)c2)C(=O)c2sc3ccccc3c2Cl)CC1` (stereo partly drawn), the EC50 in test [2] stood at 8 nM.
